Source: patent US20100292289A1 (priority 2007, published 2010)
Like-named read-outs stand apart in the source and are kept apart here.

Columns and labels:
Assay type in all cases: cell-based
[1] = target: T1, CB1 receptor (Homo sapiens, UniProt P21554); experiment: FLIPR calcium flux assay, agonist format, CB1; settings: Emax of reference agonist CP-55,940 as 100%; for % Activation Agonist CB1: 1 μM
Experimental: (§1) A FLIPR assay was conducted to monitor agonist and antagonist selectivity for compounds of the invention against the CBI and GLP-1 receptors. Percentage activation and percentage inhibition values were determined for each compound on each of the GPCRs listed above. Agonist selectivity was determined upon initial addition of compounds followed by 10 minute incubation at 25° C. Following compound incubation, reference agonists were added at EC80 to determine percentage inhibition.
(§2) Agonist percentage activation determinations were obtained by assaying sample compounds and referencing the Emax control for each of the GPCRs profiled. Antagonist percentage inhibition determinations were obtained by assaying sample compounds and referencing the control EC80 wells for each of the GPCRs profiled. The protocol design is as follows:
(§3) Unless specified otherwise, all sample compounds were diluted in 100% anhydrous DMSO including all serial dilutions. Occasionally sample compounds were provided in a different solvent, in this case all master stock dilutions were performed in the specified diluent. All control wells contained identical solvent final concentrations as sample compound wells.
(§4) Sample compounds were transferred from a master stock solution into a daughter plate that was used in the assay. Each sample compound was diluted into assay buffer (1×HBSS with 20 mM HEPES) at an appropriate concentration to obtain final concentrations.
(§5) All sample compounds were plated at 1 μM in duplicate for assaying against all GPCRs. Reference agonists were handled as mentioned above serving as assay control. These reference agonists were handled as described above for both EMax and EC80 control wells. Assay was read for 90 seconds using the FLIPRTETRA. (This assay run added sample compounds and reference agonist to respective rows.) At the completion of the first “Single Addition” assay run, assay plate was removed from the FLIPRTetra and placed at 25° C. for 10 minutes.
(§6) All plates were subjected to appropriate baseline corrections. Once baseline corrections were processed, maximum fluorescence values were exported and data manipulated to calculate percentage activation, percentage inhibition, Z′, EC50, and IC50. Percentage activation data was calculated using Emax as 100% control. Percentage inhibition was calculated using EC80 as 0% inhibition.

[2] = target: T2, GLP-1 receptor (Homo sapiens, UniProt P43220); experiment: FLIPR calcium flux assay, agonist format, GLP-1; settings: Emax of reference ligand Glucagon as 100%; for % Activation Agonist GLP-1: 1 μM
T2 sequence (P43220 24-463): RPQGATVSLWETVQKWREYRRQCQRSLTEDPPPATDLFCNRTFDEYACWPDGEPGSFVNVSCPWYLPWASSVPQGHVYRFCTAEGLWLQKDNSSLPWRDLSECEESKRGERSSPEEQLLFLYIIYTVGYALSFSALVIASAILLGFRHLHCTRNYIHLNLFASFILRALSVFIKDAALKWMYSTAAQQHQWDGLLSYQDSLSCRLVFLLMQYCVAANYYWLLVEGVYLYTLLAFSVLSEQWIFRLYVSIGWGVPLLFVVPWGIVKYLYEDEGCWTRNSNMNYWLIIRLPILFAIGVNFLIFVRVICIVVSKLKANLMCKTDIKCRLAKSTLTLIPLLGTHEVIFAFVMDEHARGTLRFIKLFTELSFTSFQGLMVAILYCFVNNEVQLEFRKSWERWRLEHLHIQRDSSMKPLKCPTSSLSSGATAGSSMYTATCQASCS
Experimental: as §1, §2, §3, §4, §5, §6

[3] = target: T1, CB1 receptor; experiment: FLIPR calcium flux assay, antagonist format, CB1; settings: reference agonist CP-55,940 at EC80 as 0% inhibition; for % Inhibition Antagonist CB1: 1 μM
Experimental: as §1, §2, §3, §4
(§7) Using the EC50 values determined previously, stimulated all pre-incubated sample compound and reference antagonist (if applicable) wells with EC80 of reference agonist. Read for 90 seconds using the FLIPRTETRA. (This assay added reference agonist to respective wells—then fluorescence measurements were collected to calculate percentage inhibition.)
as §6

[4] = target: T2, GLP-1 receptor; experiment: FLIPR calcium flux assay, antagonist format, GLP-1; settings: for inhibition at 1 µM: read-out: % Inhibition Antagonist GLP-1
Experimental: as §1, §2, §3, §4, §7, §6

[5] = 1 μM, reference ligand Glucagon at EC80 as 0% inhibition

T1 sequence (P21554 whole entry): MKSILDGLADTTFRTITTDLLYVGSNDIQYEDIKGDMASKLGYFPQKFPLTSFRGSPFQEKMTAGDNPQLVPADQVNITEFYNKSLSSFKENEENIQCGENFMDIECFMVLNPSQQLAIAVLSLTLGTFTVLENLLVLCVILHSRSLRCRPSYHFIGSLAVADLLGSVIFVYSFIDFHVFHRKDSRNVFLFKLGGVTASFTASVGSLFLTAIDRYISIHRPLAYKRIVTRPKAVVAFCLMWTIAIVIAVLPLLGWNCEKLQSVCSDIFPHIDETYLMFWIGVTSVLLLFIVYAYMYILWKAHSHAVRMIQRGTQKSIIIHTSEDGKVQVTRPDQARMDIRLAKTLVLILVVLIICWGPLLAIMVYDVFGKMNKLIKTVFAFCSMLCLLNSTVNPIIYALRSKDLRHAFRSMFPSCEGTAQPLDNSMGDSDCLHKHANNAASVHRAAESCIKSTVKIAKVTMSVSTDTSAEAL

O=C(c1ccccc1)c1ccc2n1CCC2C(=O)NCC[C@@H](Oc1ccc(C(F)(F)F)cc1)c1ccccc1 (some centres unmarked) [Compound 5a]
activation at 1 µM [1]: 0.3%
activation at 1 µM [2]: 0.4%
inhibition at 1 µM [3]: 48.7%
inhibition at 1 µM [4, 5]: -6.3%

C[C@H](C(=O)N(C)CC[C@@H](Oc1ccc(C(F)(F)F)cc1)c1ccccc1)c1ccc(C(F)(F)F)cc1 [Compound 33d]
activation at 1 µM [1]: 1.4%
activation at 1 µM [2]: 0.6%
inhibition at 1 µM [3]: 82.8%
inhibition at 1 µM [4, 5]: 11.4%

CN(Cc1ccccc1)C1CCN(C(C(=O)NCC[C@@H](Oc2ccc(C(F)(F)F)cc2)c2ccccc2)c2nc(-c3ccc(C(F)(F)F)cc3)no2)CC1 (some centres unmarked) [Compound 16]
activation at 1 µM [1]: 6.9%
activation at 1 µM [2]: 21.3%

COc1ccc2c(c1)c(CC(=O)NCC[C@@H](Oc1ccc(C(F)(F)F)cc1)c1ccccc1)c(C)n2C(=O)c1ccc(Cl)cc1 [Compound 7a]
activation at 1 µM [1]: -0.5%
activation at 1 µM [2]: 4.2%
inhibition at 1 µM [3]: 46.9%
inhibition at 1 µM [4, 5]: 0%

CC(C(=O)N(C)CC[C@@H](Oc1ccc(C(F)(F)F)cc1)c1ccccc1)c1ccc(C(F)(F)F)cc1 (some centres unmarked) [Compound 33a]
% Activation Agonist CB1 [1]: −0.3%
% Activation Agonist GLP-1 [2]: 0.9%
% Inhibition Antagonist CB1 [3]: 90.7%
% Inhibition Antagonist GLP-1 [4, 5]: 11.4%

C[C@H](C(=O)N(C)CC[C@H](Oc1ccc(C(F)(F)F)cc1)c1ccccc1)c1ccc(C(F)(F)F)cc1 [Compound 33f]
activation at 1 µM [1]: -0.5%
activation at 1 µM [2]: -3.5%
inhibition at 1 µM [3]: 34%
inhibition at 1 µM [4, 5]: 11.5%

CC(C(=O)N(C)CC[C@H](Oc1ccc(C(F)(F)F)cc1)c1ccccc1)c1ccc(CN(C)C)cc1 (some centres unmarked) [Compound 25b]
activation at 1 µM [1]: 0.2%
activation at 1 µM [2]: -3.3%
inhibition at 1 µM [3]: 15.2%
inhibition at 1 µM [4, 5]: 6.9%

CC(C)Cc1ccc(C2(C(=O)N(C)CC[C@H](Oc3ccc(C(F)(F)F)cc3)c3ccccc3)CC2)cc1 [Compound 36b]
activation at 1 µM [1]: -1.1%
activation at 1 µM [2]: 0.5%
inhibition at 1 µM [3]: 15.5%
inhibition at 1 µM [4, 5]: 5.5%

C[C@@H](C(=O)N(C)CC[C@H](Oc1ccc(C(F)(F)F)cc1)c1ccccc1)c1ccc(C(F)(F)F)cc1 [Compound 33e]
activation at 1 µM [1]: 1.7%
activation at 1 µM [2]: 0.4%
inhibition at 1 µM [3]: 0.8%
inhibition at 1 µM [4, 5]: 9.4%

COc1ccc2c(c1)c(CC(=O)N(C)CCC(Oc1ccc(C(F)(F)F)cc1)c1ccccc1)c(C)n2C(=O)c1ccc(Cl)cc1 (centres unmarked) [Compound 15]
activation at 1 µM [1]: 0%
activation at 1 µM [2]: -0.2%
inhibition at 1 µM [3]: 34.4%
inhibition at 1 µM [4, 5]: -5.1%

CC(C)Cc1cccc(C(C)C(=O)N(C)CC[C@@H](Oc2ccc(C(F)(F)F)cc2)c2ccccc2)c1 (some centres unmarked) [Compound 35a]
activation at 1 µM [1]: -1%
activation at 1 µM [2]: -0.9%
inhibition at 1 µM [3]: 80.5%
inhibition at 1 µM [4, 5]: 7.7%

O=C(Cc1nc(-c2ccc(C(F)(F)F)cc2)no1)NCC[C@@H](Oc1ccc(C(F)(F)F)cc1)c1ccccc1 [Compound 23]
% Activation Agonist CB1 [1]: 7.8%
% Activation Agonist GLP-1 [2]: 11.9%

CCc1ccc(C(C)C(=O)N(C)CC[C@H](Oc2ccc(C(F)(F)F)cc2)c2ccccc2)cc1 (some centres unmarked) [Compound 34b]
activation at 1 µM [1]: -1.9%
activation at 1 µM [2]: 0.2%
inhibition at 1 µM [3]: 76.4%
inhibition at 1 µM [4, 5]: 1.6%

CC(C)Cc1ccc(C2(C(=O)N(C)CC[C@H](Oc3ccc(C(F)(F)F)cc3)c3ccccc3)CCC2)cc1 [Compound 30b]
% Activation Agonist CB1 [1]: −0.8%
% Activation Agonist GLP-1 [2]: −3.4%
% Inhibition Antagonist CB1 [3]: 48.3%
% Inhibition Antagonist GLP-1 [4, 5]: 9.7%

C[C@@H](C(=O)N(C)CC[C@@H](Oc1ccc(C(F)(F)F)cc1)c1ccccc1)c1ccc(C(F)(F)F)cc1 [Compound 33c]
activation at 1 µM [1]: -0.9%
activation at 1 µM [2]: 0.8%
inhibition at 1 µM [3]: 80.1%
inhibition at 1 µM [4, 5]: 0.2%

O=C(NCC[C@@H](Oc1ccc(C(F)(F)F)cc1)c1ccccc1)C(c1nc(-c2ccc(C(F)(F)F)cc2)no1)N1CCC[C@@H](COc2ccc(C(F)(F)F)cc2)C1 (some centres unmarked) [Compound 19]
% Activation Agonist CB1 [1]: 0.5%
% Activation Agonist GLP-1 [2]: 6.5%

CN(Cc1ccccc1)C1CCN(C(C(=O)NCCOc2ccc(C(F)(F)F)cc2)c2nc(-c3ccc(C(F)(F)F)cc3)no2)CC1 (centres unmarked) [Compound 24]
% Activation Agonist CB1 [1]: 1.6%
% Activation Agonist GLP-1 [2]: 5.9%
% Inhibition Antagonist CB1 [3]: 4.6%
% Inhibition Antagonist GLP-1 [4, 5]: −1.6%

CC(C(=O)N(C)CC[C@H](Oc1ccc(C(F)(F)F)cc1)c1ccccc1)c1ccc(C(F)(F)F)cc1 (some centres unmarked) [Compound 33b]
activation at 1 µM [1]: 0.5%
activation at 1 µM [2]: 17.6%
inhibition at 1 µM [3]: 45.8%
inhibition at 1 µM [4, 5]: ~0%

CC(C)Cc1cccc(C(C)C(=O)N(C)CC[C@H](Oc2ccc(C(F)(F)F)cc2)c2ccccc2)c1 (some centres unmarked) [Compound 35b]
activation at 1 µM [1]: 1.1%
activation at 1 µM [2]: 3.8%
inhibition at 1 µM [3]: 38.9%
inhibition at 1 µM [4, 5]: 0.3%

CN(CCC(Oc1ccc(C(F)(F)F)cc1)c1ccccc1)C(=O)C1CCn2c(C(=O)c3ccccc3)ccc21 (centres unmarked) [Compound 13]
activation at 1 µM [1]: 0.9%
activation at 1 µM [2]: 0.8%
inhibition at 1 µM [3]: 37.7%
inhibition at 1 µM [4, 5]: -15.4%

CC(C)Cc1ccc(C2(C(=O)N(C)CC[C@@H](Oc3ccc(C(F)(F)F)cc3)c3ccccc3)CC2)cc1 [Compound 36a]
activation at 1 µM [1]: -1.2%
activation at 1 µM [2]: 4.4%
inhibition at 1 µM [3]: 59.9%
inhibition at 1 µM [4, 5]: 11%

CCc1ccc(C(C)C(=O)N(C)CC[C@@H](Oc2ccc(C(F)(F)F)cc2)c2ccccc2)cc1 (some centres unmarked) [Compound 34a]
activation at 1 µM [1]: -2.9%
activation at 1 µM [2]: -0.8%
inhibition at 1 µM [3]: 99%
inhibition at 1 µM [4, 5]: -1%

CC(C(=O)N(C)CC[C@H](Oc1ccc(C(F)(F)F)cc1)c1ccccc1)c1ccc(CC2CCCC2=O)cc1 (some centres unmarked) [Compound 29b]
% Activation Agonist CB1 [1]: −0.2%
% Activation Agonist GLP-1 [2]: 6.2%
% Inhibition Antagonist CB1 [3]: 31.2%
% Inhibition Antagonist GLP-1 [4, 5]: 0.0%

CC(C)Cc1ccc(C2(C(=O)N(C)CC[C@@H](Oc3ccc(C(F)(F)F)cc3)c3ccccc3)CCC2)cc1 [Compound 30a]
% Activation Agonist CB1 [1]: 1.0%
% Activation Agonist GLP-1 [2]: −3.7%
% Inhibition Antagonist CB1 [3]: 84.6%
% Inhibition Antagonist GLP-1 [4, 5]: 7.5%

C[C@H]1CCN(C(C(=O)NCCOc2ccc(C(F)(F)F)cc2)c2nc(-c3ccc(C(F)(F)F)cc3)no2)C[C@@H]1COc1ccc(C(F)(F)F)cc1 (some centres unmarked) [Compound 20]
% Activation Agonist CB1 [1]: 1.9%
% Activation Agonist GLP-1 [2]: 7.5%
% Inhibition Antagonist CB1 [3]: 14.5%
% Inhibition Antagonist GLP-1 [4, 5]: −14.4%

C[C@@H]1CCN(C(C(=O)NCC[C@@H](Oc2ccc(C(F)(F)F)cc2)c2ccccc2)c2nc(-c3ccc(C(F)(F)F)cc3)no2)C[C@@H]1COc1ccc(C(F)(F)F)cc1 (some centres unmarked) [Compound 18]
% Activation Agonist CB1 [1]: 6.2%
% Activation Agonist GLP-1 [2]: 20.6%

C[C@H]1CCN(C(C(=O)NCC[C@@H](Oc2ccc(C(F)(F)F)cc2)c2ccccc2)c2nc(-c3ccc(C(F)(F)F)cc3)no2)C[C@@H]1COc1ccc(C(F)(F)F)cc1 (some centres unmarked) [Compound 17]
% Activation Agonist CB1 [1]: 8.6%
% Activation Agonist GLP-1 [2]: 9.4%

CC(C)Cc1ccc(CC(=O)N(C)CC[C@H](Oc2ccc(C(F)(F)F)cc2)c2ccccc2)cc1 [Compound 32b]
% Activation Agonist CB1 [1]: 2.1%
% Activation Agonist GLP-1 [2]: −1.8%
% Inhibition Antagonist CB1 [3]: 23.0%
% Inhibition Antagonist GLP-1 [4, 5]: −0.8%

CC(C)Cc1ccccc1C(C)C(=O)N(C)CC[C@@H](Oc1ccc(C(F)(F)F)cc1)c1ccccc1 (some centres unmarked) [Compound 38a]
inhibition at 1 µM [3]: 98.5%
inhibition at 1 µM [4]: -20.2%
